Measurements taken from patent EP1219631A1, “ANTIANDROGEN AGENTS” (CHUGAI SEIYAKU KABUSHIKI KAISHA, priority 1999, dated 2001).
Where two headings read alike, the source gives them in different places.

Legend:
human androgen receptor [1] = target: T1, human androgen receptor (Homo sapiens, UniProt P10275); assay: Androgen receptor reporter gene assay, antagonist action against DHT (MMTV-Luc, pSG5/hAR and Renilla Luc vectors transfected into HeLa cells, dual-luciferase); type: cell-based
T1 construct: expressed in transfected cells; host or cells: HeLa cells
T1 sequence (P10275 1-920): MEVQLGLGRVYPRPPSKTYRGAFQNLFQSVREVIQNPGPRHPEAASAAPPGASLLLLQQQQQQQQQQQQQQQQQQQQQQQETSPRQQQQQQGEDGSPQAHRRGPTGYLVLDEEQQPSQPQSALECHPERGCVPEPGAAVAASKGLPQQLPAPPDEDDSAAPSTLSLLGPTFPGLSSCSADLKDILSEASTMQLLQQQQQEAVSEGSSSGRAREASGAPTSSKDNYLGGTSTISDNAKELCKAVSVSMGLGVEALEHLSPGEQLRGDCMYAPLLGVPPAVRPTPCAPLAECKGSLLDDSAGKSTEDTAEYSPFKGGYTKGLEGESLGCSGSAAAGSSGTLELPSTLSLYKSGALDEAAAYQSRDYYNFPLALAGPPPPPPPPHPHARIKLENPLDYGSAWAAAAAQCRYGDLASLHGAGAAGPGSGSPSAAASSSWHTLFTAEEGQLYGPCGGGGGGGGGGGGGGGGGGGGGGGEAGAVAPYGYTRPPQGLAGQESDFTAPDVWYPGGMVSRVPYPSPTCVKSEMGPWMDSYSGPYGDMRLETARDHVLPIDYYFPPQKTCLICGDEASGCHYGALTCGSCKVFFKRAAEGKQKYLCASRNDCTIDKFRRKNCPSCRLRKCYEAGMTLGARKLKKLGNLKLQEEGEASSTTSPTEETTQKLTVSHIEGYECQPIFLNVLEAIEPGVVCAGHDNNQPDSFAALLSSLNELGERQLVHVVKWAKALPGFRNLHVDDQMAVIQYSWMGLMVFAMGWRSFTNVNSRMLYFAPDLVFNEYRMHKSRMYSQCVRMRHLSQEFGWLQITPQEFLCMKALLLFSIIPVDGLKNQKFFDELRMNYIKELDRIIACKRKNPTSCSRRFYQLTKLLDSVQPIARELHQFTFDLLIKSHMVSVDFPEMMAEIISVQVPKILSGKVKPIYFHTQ
Experimental: The expression "acting as antagonist" means that in the following androgen receptor gene assay, the transcriptional activity value of 0.1 nmol/L of dihydrotestosterone (DHT) is inhibited to 0 - 50% at any concentration of 0.1 nmol/L - 10 µmol/L:
Twenty-four hours before transfection, 1.0 x 10^5 HeLa cells are cultured in phenol red free DMEM/5% DCC-FBS on 12-well microplates. Five hundred nanograms/well of MMTV-Luc vector, 100 ng/well of pSG5/hAR and 5 ng/well of Renilla Luc vector are transfected into the HeLa cells. The transfection is performed in a liquid culture of the phenol red free DMEM using […] of lipofectoamine. Nine hours after the transfection, the liquid culture is replaced by phenol red free DMEM/3% DCC-FBS containing 0.1 nmol/L of DHT and […] of a compound of the invention which is represented by the general formula (I) or the substance of the invention which acts as antagonist against but not as agonist for the androgen receptor. The transcriptional activity value is measured 48 hours after the replacement of the liquid culture. Transcriptional activity is measured with a dual-luciferase reporter assay system. The transcriptional activity value is defined as the value for firefly luciferase divided by the value for sea pansy luciferase. […] 270, pp. 19998-20003, 1995.
(§1) Twenty-four hours before transfection, 1.0 x 10^5 HeLa cells were cultured in phenol red free DMEM/5% DCC-FBS on 12-well microplates. Five hundred nanograms/well of MMTV-Luc vector, 100 ng/well of pSG5/hAR and 5 ng/well of Renilla Luc vector were transfected into the HeLa cells. The transfection was performed in a liquid culture of the phenol red free DMEM using […] of lipofectoamine. […] The transcriptional activity value was measured 48 hours after the replacement of the liquid culture. Transcriptional activity was measured with a dual-luciferase reporter assay system. The transcriptional activity value was calculated as the value for firefly luciferase divided by the value for sea pansy luciferase.
The compound was added at concentrations of 1, 10, 100, 1000 and 10000 nmol/L and at each of these concentrations, measurement was done in the presence of DHT (0.1 nmol/L). Antagonist activity = Transcriptional activity when the compound was added/Transcriptional activity when the compound was not added x 100 [formula]

human androgen receptor [2] = target: T1, human androgen receptor; assay: Androgen receptor reporter gene assay, agonist action (MMTV-Luc, pSG5-hAR and Renilla Luc vectors transfected into HeLa cells, dual-luciferase); type: cell-based; conditions: for FI5 value: concentration showing a transcriptional activity five times that without compound, tested at 1, 10, 100, 1000 and 10000 nmol/L
Source text: Speaking of the substance of the invention which acts as antagonist against but not as agonist for the androgen receptor, the expression "not acting as agonist" means that in the following androgen receptor gene assay, the transcriptional activity value of the substance at any concentration of 0.1 nmol/L - 10 µmol/L is from one to five times the transcriptional activity value for no addition of the substance which is taken as unity:
Twenty-four hours before transfection, 1.0 x 10^5 HeLa cells (purchased from Dainippon Pharmaceutical Co., Ltd.) are cultured in phenol red free Dulbecco's modified Eagle medium (DMEM) containing 5% of charcoal-treated FBS (DCC-FBS) in 12-well microplates. Five hundred nanograms/well of MMTV-Luc vector (the reporter plasmid of luciferase having mouse tumor long terminal repeats containing the androgen response element: GM-CAT vector (A.T.C.C. No. 67282) purchased from A.T.C.C. provided that the chloramphenicol acetyl transferase gene was replaced by the firefly luciferase gene), 100 ng/well of pSG5-hAR (the expression vector of the human androgen receptor which harbors the androgen receptor gene under the control of SV40 promoter) and 5 ng/well of Renilla Luc vector (a vector for internal standard incorporating the sea pansy luciferase gene) are transfected into the HeLa cells. The transfection is performed in a liquid culture of the phenol red free DMEM using […] of lipofectoamine (GibcoBRL). Nine hours after the transfection, the liquid culture is replaced by phenol red free DMEM/3% DCC-FBS containing 10 µmol/L of a compound of the invention which is represented by the general formula (I) or the substance of the invention which acts as antagonist against but not as agonist for the androgen receptor. The transcriptional activity value is measured 48 hours after the replacement of the liquid culture. Transcriptional activity is measured with a dual-luciferase reporter assay system (Promega). The transcriptional activity value is defined as the value for firefly luciferase divided by the value for sea pansy luciferase. […] 270, pp. 19998-20003, 1995.
as §1, with “pSG5-hAR” for “pSG5/hAR”
The compound was added at concentrations of 1, 10, 100, 1000 and 10000 nmol/L. Agonist activity = Transcriptional activity when the compound was added/Transcriptional activity when the compound was not added [formula]

[3] = concentration giving 50% decrease in the transcriptional activity of DHT 0.1 nmol/L, tested at 1, 10, 100, 1000 and 10000 nmol/L, read-out: IC50 value

## CN(C)C(=O)CCCOc1cccc(CCCC2CC3CC(=O)CCC3(C)C3CCC4(C)C(O)CCC4C23)c1 (stereo not drawn) [Example 168]
Human androgen receptor [1]; [3]
  IC50: 0.54 µM

## CCCN(C)C(=O)CCCCCCCC1CC2CC(=O)CCC2(C)C2CCC3(C)C(O)CCC3C12 (stereo not drawn) [Example 26]
Human androgen receptor [1]; [3]
  IC50: 1.13 µM

## CC12CCC3C(C(CCCCCCCC(=O)NCCc4ccccc4)CC4CC(=O)CCC43C)C1CCC2O (stereo not drawn) [Example 74]
Human androgen receptor [2]
  FI5 value: ND (even when the compound was added at a concentration of 10000 nM, the transcriptional activity of the compound-treated group was less than 5 times the transcriptional activity of the control group, making it impossible to compute the FI5 value)
Human androgen receptor [1]
  IC50: 2.04 µM

## CC12CCC3C(C(CCCCCCCC(=O)NCc4ccco4)CC4CC(=O)CCC43C)C1CCC2O (stereo not drawn) [Example 23]
Human androgen receptor [1]; [3]
  IC50: 1.3 µM

## bicaltamide
Human androgen receptor [2]; Example 1, HeLa cells, 48 hours
  transcriptional activity value relative to the case of non-addition: more than five times
Human androgen receptor [2]; at a concentration of 10 µmol/L
  acting as agonist: act as agonist
Human androgen receptor [2]
  FI5 value: 767 nM
Human androgen receptor [2]; summary of the results of Example 180
  agonist action for the androgen receptor mediated transcriptional activity: exhibit agonist action

## CN(C)C(=O)CCCCCCCCCCC1CC2CC(=O)CCC2(C)C2CCC3(C)C(O)CCC3C12 (stereo not drawn) [Example 52]
Human androgen receptor [2]
  FI5 value: ND (even when the compound was added at a concentration of 10000 nM, the transcriptional activity of the compound-treated group was less than 5 times the transcriptional activity of the control group, making it impossible to compute the FI5 value)
Human androgen receptor [1]
  IC50: 0.277 µM

## CC12CCC3C(C(CCCc4cccc(OCCCCC(=O)N5CCCC5)c4)CC4CC(=O)CCC43C)C1CCC2O (stereo not drawn) [Example 167]
Human androgen receptor [1]; [3]
  IC50: 0.475 µM

## CCN(CC)C(=O)CCCCCCCC1CC2CC(=O)CCC2(C)C2CCC3(C)C(O)CCC3C12 (stereo not drawn) [Example 19]
Human androgen receptor [1]
  IC50: 0.295 µM

## CCCCN(C)C(=O)CCCCCCCCCC[C@@H]1CC2=CC(=O)CC[C@]2(C)[C@H]2CC[C@]3(C)[C@@H](O)CC[C@H]3[C@H]12 [EM-101, reference compound]
Human androgen receptor [1]; [3]
  IC50: 2.62 µM

## CC12CCC3C(C(CCCCCCCC(=O)NCc4ccccc4)CC4CC(=O)CCC43C)C1CCC2O (stereo not drawn) [Example 73]
Human androgen receptor [1]; [3]
  IC50: 1.1 µM

## CCN(C)C(=O)CCCCCCCC1CC2CC(=O)CCC2(C)C2CCC3(C)C(O)CCC3C12 (stereo not drawn) [Example 25]
Human androgen receptor [1]; [3]
  IC50: 0.415 µM

## CCCNC(=O)CCCCCCCC1CC2CC(=O)CCC2(C)C2CCC3(C)C(O)CCC3C12 (stereo not drawn) [Example 65]
Human androgen receptor [1]; [3]
  IC50: 1.83 µM

## CC(C)NC(=O)CCCCCCCC1CC2CC(=O)CCC2(C)C2CCC3(C)C(O)CCC3C12 (stereo not drawn) [Example 14]
Human androgen receptor [2]
  FI5 value: ND (even when the compound was added at a concentration of 10000 nM, the transcriptional activity of the compound-treated group was less than 5 times the transcriptional activity of the control group, making it impossible to compute the FI5 value)
Human androgen receptor [1]
  IC50: 1.98 µM

## CCCCN(C)C(=O)CCCCCCCCCC1CC2CC(=O)CCC2(C)C2CCC3(C)C(O)CCC3C12 (stereo not drawn) [Example 46]
Human androgen receptor [1]; [3]
  IC50: 1.75 µM

## CN(C)C(=O)CCCCCCCCCC1CC2CC(=O)CCC2(C)C2CCC3(C)C(O)CCC3C12 (stereo not drawn) [Example 42]
Human androgen receptor [1]; [3]
  IC50: 0.342 µM

## C[C@]12CCC(=O)C[C@@H]1C[C@@H](CCCCCCCC(=O)NCCO)[C@@H]1[C@@H]2CC[C@]2(C)[C@@H](O)CC[C@@H]12 (stereo in doubt) [Example 64, 17β-hydroxy-7α-[7-{N-(2-hydroxyethyl]-aminocarbonyl}heptyl]-5α-androstan-3-one]
Human androgen receptor [1]; [3]
  IC50: 0.809 µM

## CC12CCC3C(C(CCCCCCCC(=O)N4CCCC4)CC4CC(=O)CCC43C)C1CCC2O (stereo not drawn) [Example 29]
Human androgen receptor [2]
  FI5 value: ND (even when the compound was added at a concentration of 10000 nM, the transcriptional activity of the compound-treated group was less than 5 times the transcriptional activity of the control group, making it impossible to compute the FI5 value)
Human androgen receptor [1]
  IC50: 0.304 µM

## CCN(CC)C(=O)CCCCCCCCCC1CC2CC(=O)CCC2(C)C2CCC3(C)C(O)CCC3C12 (stereo not drawn) [Example 43]
Human androgen receptor [1]; [3]
  IC50: 1.3 µM

## CCCCN(C)C(=O)CCCCCCCC1CC2CC(=O)CCC2(C)C2CCC3(C)C(O)CCC3C12 (stereo not drawn) [Example 18]
Human androgen receptor [1]
  IC50: 0.342 µM

## CC(C)N(C)C(=O)CCCCCCCC1CC2CC(=O)CCC2(C)C2CCC3(C)C(O)CCC3C12 (stereo not drawn) [Example 27]
Human androgen receptor [1]
  IC50: 0.421 µM

## CCCN(C)C(=O)CCCCCCCCCC1CC2CC(=O)CCC2(C)C2CCC3(C)C(O)CCC3C12 (stereo not drawn) [Example 50]
Human androgen receptor [1]; [3]
  IC50: 0.737 µM

## CCNC(=O)CCCCCCC[C@@H]1C[C@H]2CC(=O)CC[C@]2(C)[C@H]2CC[C@]3(C)[C@@H](O)CC[C@H]3[C@H]12 [Example 10]
Human androgen receptor [1]; [3]
  IC50: 0.937 µM

## CNC(=O)CCCCCCCC1CC2CC(=O)CCC2(C)C2CCC3(C)C(O)CCC3C12 (stereo not drawn) [Example 24]
Human androgen receptor [1]
  IC50: 0.477 µM

## CN(C)C(=O)CCCCCCC[C@@H]1C[C@H]2CC(=O)CC[C@]2(C)[C@H]2CC[C@]3(C)[C@@H](O)CC[C@H]3[C@H]12 [Example 9, 17β-hydroxy-7α-{7-(N,N-dimethylaminocarbonyl)-heptyl}-5α-androstan-3-one]
Human androgen receptor [1]
  IC50: 0.451 µM

## CC12CCC3C(C(CCCCCCCCCC(=O)N4CCOCC4)CC4CC(=O)CCC43C)C1CCC2O (stereo not drawn) [Example 51]
Human androgen receptor [1]; [3]
  IC50: 0.474 µM

## CCN(CC)C(=O)CCCCCCCCCC1CC2(C)C(O)CCC2C2CCC3CC(=O)CCC3(C)C12 (stereo not drawn) [Example 96]
Human androgen receptor [1]; [3]
  IC50: 1.6 µM
